Source: patent US6184365A, “Anthracycline derivatives having 4-amino-2,4,6-trideoxy-2 fluoro-α-L-talopyranosyl group” (priority 1996, dated 2001)
Converted amounts (≈) assume the structure as drawn. “Also recorded” adds a separate entry of the source. Like-named read-outs stand apart in the source and are kept apart here.

Tests used:
[1] = test system: mouse leukemia P388 cells; assay: Growth inhibition of mouse leukemia P388 cells; assay type: cell-based
Experimental: (§1) Adriamycin was used as a comparative compound and was tested in the same manner as above.

[2] = test system: human chronic myelogenous leukemia (K562); assay: Growth inhibition of human chronic myelogenous leukemia (K562); assay type: cell-based; conditions: for IC50: Homo sapiens
Experimental: as §1
(§2) The different kinds of human cancer cells tested were six kinds indicated below, including human chronic myelogenous leukemia (K562), human vaginal melanoma (HMV-1), human nasopharyngeal carcinoma (KB), human gastric adenocarcinoma (MKN-1), human lung non-small cell carcinoma (PC-14) and human bladder carcinoma (T24).

[3] = test system: Leukemia L-1210 cells; assay: Antitumor activity against leukemia in CDF1 mice inoculated with Leukemia L-1210 cells; assay type: in vivo, mouse; conditions: for Increase (%) in life-span (T/C, %): i.p., once a day for 9 days, as hydrochloride; for antitumor activity against mouse Leukemia L-1210 cell compared with adriamycin: low dosages
Experimental: Thus, to evaluate the antitumor effects of the novel compounds of this invention against experimental tumors in animals, CDF1 mice (four mice per group) were intraperitoneally inoculated with cells of Leukemia L-1210 at an amount of 1×10^5 cells/mouse. Since an elapse of 24 hours from the inoculation of the leukemia cells, a test compound of this invention was administered intraperitoneally to the mice under test once a day for consecutive 9 days, with the test compound being given as its hydrochloride in the form of a solution in a physiological saline. […] In the meanwhile, mice of the control group (the untreated group) were administered only with physiological saline after the inoculation of the L-1210 cells. During the observation period, the number of the surviving mice was counted for both the treated group and the control group, and the mean survival days of mice of both the treated group and the control group were calculated. Then, the percentages (%) of the increase in the life-span of the treated mice was estimated, as T/C (%), in terms of the mean survival day (C) of the untreated mice of the control group and the mean survival day (T) of the treated mice of the treated group. For comparison purposes, similar tests were effected using daunomycin (as hydrochloride) and adriamycin (as hydrochloride). The mean survival day of mice of the control group (the untreated group) was 8 to 9 days, and the mean survival day of mice of the comparative groups having received the administration of daunomycin or adriamycin usually varied dependently on the dosage of the compound tested.
Incidentally, in respect of the fractional numbers parenthesized below the numerical values of increase (%) in the life-span, the denominator of the fraction denotes the number of mice tested in one test group but the numerator of the fraction denotes the number of mice which survived for 60 days or longer.

[4] = test system: human bladder carcinoma (T24); assay: Growth inhibition of human bladder carcinoma (T24); assay type: cell-based; conditions: for IC50: Homo sapiens
Experimental: as §1, §2

[5] = test system: human nasopharyngeal carcinoma (KB); assay: Growth inhibition of human nasopharyngeal carcinoma (KB); assay type: cell-based
Experimental: as §1, §2

[6] = test system: human gastric adenocarcinoma (MKN-1); assay: Growth inhibition of human gastric adenocarcinoma (MKN-1); assay type: cell-based; conditions: for IC50: Homo sapiens
Experimental: as §1, §2

[7] = cited from earlier work
[8] = test system: adriamycin-resistant P388 cells (P388/ADR); assay: Growth inhibition of adriamycin-resistant P388 cells (P388/ADR); assay type: cell-based, mouse; conditions: for IC50: Mus musculus
Experimental: as §1

[9] = test system: human lung non-small cell carcinoma (PC-14); assay: Growth inhibition of human lung non-small cell carcinoma (PC-14); assay type: cell-based; conditions: for IC50: Homo sapiens
Experimental: as §1, §2

[10] = test system: human vaginal melanoma (HMV-1); assay: Growth inhibition of human vaginal melanoma (HMV-1); assay type: cell-based
Experimental: as §1, §2

[11] = test system: various human cancer cells; assay: in vitro tests against various human cancer cells; assay type: cell-based; conditions: for antitumor or anticancer activity compared with adriamycin: human cancer cells as well as mouse leukemia P388 and P388/ADR cells; for anticancer activities against various human cancer cells compared with adriamycin: in vitro
Experimental: as §1, §2

[12] = Solubility in water; assay type: physicochemical
[13] = earlier derivatives; cited from earlier work
[14] = test system: mouse Leukemia L-1210 cell; conditions: in vivo, cited from earlier work
[15] = test system: various human cancer cells; conditions: in vitro; cited from earlier work
[16] = MKN-1, 72 hours, read-out: IC50
[17] = PC-14, 72 hours, read-out: IC50
[18] = HMV-1, 72 hours, read-out: IC50

SMILES: COc1cccc2c1C(=O)c1c(O)c3c(c(O)c1C2=O)C[C@@](O)(C(=O)CO)C[C@@H]3O[C@H]1C[C@H](N)[C@H](O)[C@H](C)O1 [Adriamycin, reference compound]
- IC50 ([1]; P388, 72 h): 0.032 µg/mL (≈ 0.0589 µM)
- IC50 ([2]; K562, 72 h): 0.39 µg/mL (≈ 0.718 µM)
- Increase (%) in life-span (T/C, %) ([3]; 0.15 mg/kg/day): 140%
- Increase (%) in life-span (T/C, %) ([3]; 0.3 mg/kg/day): 132%
- Increase (%) in life-span (T/C, %) ([3]; 0.6 mg/kg/day): 208%
- Increase (%) in life-span (T/C, %) ([3]; 1.25 mg/kg/day): 330%
- Increase (%) in life-span (T/C, %) ([3]; 2.5 mg/kg/day): 273%
- Increase (%) in life-span (T/C, %) ([3]; 5 mg/kg/day): 177%
- development of toxicity in words ([3]; 2.5 to 5 mg/kg/day): accompanied by the development of toxicity
- percentages of increase in the life-span (T/C, %) ([3]; 2.5 to 5 mg/kg/day): about 330%
- IC50 ([4]; 72 h): 0.16 µg/mL (≈ 0.294 µM)
- IC50 ([5]; 72 h): 0.05 µg/mL (≈ 0.092 µM)
- IC50 ([6]; MKN-1, 72 h): 0.25 µg/mL (≈ 0.46 µM)
- side-effects ([7]; clinical treatment of cancer-bearing patients): serious side-effects such as leukocytopenia, alopecia, myocardiopathy and others
- IC50 ([8]; 72 h): 2.5 µg/mL (≈ 4.6 µM)
- IC50 ([9]; PC-14, 72 h): 0.62 µg/mL (≈ 1.14 µM)
- IC50 ([10]; 72 h): 0.14 µg/mL (≈ 0.258 µM)

SMILES: COc1cccc2c1C(=O)c1c(O)c3c(c(O)c1C2=O)C[C@@](O)(C(C)=O)C[C@@H]3O[C@@H]1O[C@@H](C)[C@@H](N)[C@@H](O)[C@H]1F [Compound (a), 7-O-(4-amino-2,4,6-trideoxy-2-fluoro-α-L-talopyranosyl)daunomycinone]
- IC50 ([1]; P388, 72 hours, read-out: IC50): < 0.0098 µg/mL
- IC50 ([2]; K562, 72 hours, read-out: IC50): 0.087 µg/mL (≈ 0.159 µM)
- Increase (%) in life-span (T/C, %) ([3]; 0.15 mg/kg/day): 127%
- Increase (%) in life-span (T/C, %) ([3]; 0.3 mg/kg/day): 152%
- Increase (%) in life-span (T/C, %) ([3]; 0.6 mg/kg/day): 182%
- number of mice which survived for 60 days or longer / number tested ([3]; 1.25 mg/kg/day): 2/4
- Increase (%) in life-span (T/C, %) ([3]; 1.25 mg/kg/day): > 463%
- Increase (%) in life-span (T/C, %) ([3]; 2.5 mg/kg/day): 235%
- Increase (%) in life-span (T/C, %) ([3]; 5 mg/kg/day): 175%
- antitumor activity compared with daunomycin ([3]; 0.6~1.25 mg/kg): antitumor activities higher than those of daunomycin
- antitumor activity against mouse Leukemia L-1210 cell compared with adriamycin [3]: substantially equal to or higher than that of adriamycin
- IC50 ([4]; T24, 72 hours, read-out: IC50): 0.047 µg/mL (≈ 0.0862 µM)
- IC50 ([5]; KB, 72 hours, read-out: IC50): 0.028 µg/mL (≈ 0.0513 µM)
- IC50 [6, 16]: 0.12 µg/mL (≈ 0.22 µM)
- antitumor or anticancer activity compared with adriamycin [11]: higher antitumor or anticancer activities than those of adriamycin
- anticancer activities against various human cancer cells compared with adriamycin [11]: remarkably improved anticancer activities
- anticancer activity, folds higher than that of adriamycin [8]: 29.1 folds
- IC50 ([8]; 72 hours, read-out: IC50): 0.086 µg/mL (≈ 0.158 µM)
- IC50 [9, 17]: 0.17 µg/mL (≈ 0.312 µM)
- IC50 [10, 18]: 0.071 µg/mL (≈ 0.13 µM)
- solubility [12]: 10 mg/mL (≈ 18300 µM)

SMILES: COc1cccc2c1C(=O)c1c(O)c3c(c(O)c1C2=O)C[C@@](O)(C(=O)CO)C[C@@H]3O[C@@H]1O[C@@H](C)[C@@H](N)[C@@H](O)[C@H]1F [Compound (b), 7-O-(4-amino-2,4,6-trideoxy-2-fluoro-α-L-talopyranosyl)adriamycinone]
- IC50 ([1]; P388, 72 hours, read-out: IC50): < 0.0098 µg/mL
- IC50 ([2]; K562, 72 hours, read-out: IC50): 0.063 µg/mL (≈ 0.112 µM)
- anticancer activity, folds higher than that of adriamycin ([2]; K562): 6.2 folds
- antitumor activity (T/C, %) compared with daunomycin ([3]; 0.15 mg/kg to 0.6 mg/kg): remarkably enhanced anticancer or antitumor activities
- Increase (%) in life-span (T/C, %) ([3]; 0.15 mg/kg/day): 155%
- development of toxicity in words ([3]; 0.3 mg/kg to 0.6 mg/kg): did not involve the development of toxicity; also recorded: the development of toxicities is not involved
- number of mice which survived for 60 days or longer / number tested ([3]; 0.3 mg/kg/day): 1/4
- Increase (%) in life-span (T/C, %) ([3]; 0.3 mg/kg/day): > 400%
- number of the mice surviving for 60 days (fully cured) ([3]; 0.3 mg/kg~0.6 mg/kg, pooled): two in eight
- number of mice which survived for 60 days or longer / number tested ([3]; 0.6 mg/kg/day): 1/4
- Increase (%) in life-span (T/C, %) ([3]; 0.6 mg/kg/day): > 403%
- number of mice which survived for 60 days or longer / number tested ([3]; 1.25 mg/kg/day): 1/4
- Increase (%) in life-span (T/C, %) ([3]; 1.25 mg/kg/day): > 330%
- Increase (%) in life-span (T/C, %) ([3]; 2.5 mg/kg/day): 139%
- Increase (%) in life-span (T/C, %) ([3]; 5 mg/kg/day): 92%
- antitumor activity compared with adriamycin ([3]; 0.3~0.6 mg/kg, adriamycin at 0.3~0.6 mg/kg): markedly enhanced anticancer or antitumor activities
- antitumor activity against mouse Leukemia L-1210 cell compared with adriamycin [3]: substantially equal to or higher than that of adriamycin
- IC50 ([4]; T24, 72 hours, read-out: IC50): 0.026 µg/mL (≈ 0.0463 µM)
- anticancer activity, folds higher than that of adriamycin ([4]; T24): 6.2 folds
- IC50 ([5]; KB, 72 hours, read-out: IC50): 0.023 µg/mL (≈ 0.041 µM)
- IC50 [6, 16]: 0.062 µg/mL (≈ 0.11 µM)
- anticancer activity, folds higher than that of adriamycin ([6]; MKN-1): 4 folds
- antitumor or anticancer activity compared with adriamycin [11]: higher antitumor or anticancer activities than those of adriamycin
- anticancer activities against various human cancer cells compared with adriamycin [11]: remarkably improved anticancer activities
- anticancer activity, folds higher than that of adriamycin [8]: 13.9 folds
- IC50 ([8]; 72 hours, read-out: IC50): 0.18 µg/mL (≈ 0.321 µM)
- IC50 [9, 17]: 0.12 µg/mL (≈ 0.214 µM)
- anticancer activity, folds higher than that of adriamycin ([9]; PC-14): 5.2 folds
- IC50 [10, 18]: 0.056 µg/mL (≈ 0.0997 µM)
- solubility [12]: 15 mg/mL (≈ 26700 µM)

SMILES: COc1cccc2c1C(=O)c1c(O)c3c(c(O)c1C2=O)C[C@@](O)(C(C)=O)C[C@@H]3O[C@H]1C[C@H](N)[C@H](O)[C@H](C)O1 [Daunomycin, reference compound]
- Increase (%) in life-span (T/C, %) ([3]; 0.15 mg/kg/day): 132%
- Increase (%) in life-span (T/C, %) ([3]; 0.3 mg/kg/day): 112%
- Increase (%) in life-span (T/C, %) ([3]; 0.6 mg/kg/day): 145%
- Increase (%) in life-span (T/C, %) ([3]; 1.25 mg/kg/day): 158%
- Increase (%) in life-span (T/C, %) ([3]; 2.5 mg/kg/day): 171%
- Increase (%) in life-span (T/C, %) ([3]; 5 mg/kg/day): 138%
- development of toxicity in words ([3]; 2.5 to 5 mg/kg/day): accompanied by the development of toxicity
- side-effects ([7]; human, in vivo): serious side-effects such as leukocytopenia, alopecia, myocardiopathy and others

SMILES: COc1cccc2c1C(=O)c1c(O)c3c(c(O)c1C2=O)C[C@@](O)(C(=O)CO)C[C@@H]3O[C@@H]1O[C@@H](C)[C@H](N)[C@@H](O)[C@H]1F [compound of the formula (D-b), 7-O-(4-amino-2,4,6-trideoxy-2-fluoro-α-L-mannopyranosyl)adriamycinone]
- solubility in water [13]: soluble in water
- antitumor activity against mouse Leukemia L-1210 cell over adriamycin ([14]; low dosages): remarkably improved antitumor activity
- antitumor activity against experimental tumors in animals [14]: remarkably high antitumor activity
- anticancer activity against various human cancer cells compared with adriamycin [15]: substantially as high as those of adriamycin
